# According to publication PMC9569420 (Communications Biology, 2022):
# “And” between values parts separate entries of the source, which are not always exact repeats. Equal values may be shown once.
# Columns and labels:
# FGFR1 = molecular target: T1, FGFR1 (Homo sapiens, UniProt P11362); experiment: HotSpot kinase assay; assay type: biochemical; settings: read-out: % Enzyme Activity (relative to DMSO controls)
# T1 construct: purchased Reaction Biology Corporation
# MARK2/PAR-1Ba = molecular target: T2, MARK2/PAR-1Ba (Homo sapiens, UniProt Q7KZI7); experiment: HotSpot kinase assay; assay type: biochemical; settings: read-out: % Enzyme Activity (relative to DMSO controls)
# T2 construct: purchased Reaction Biology Corporation
# FLT4/VEGFR3 = molecular target: T3, FLT4/VEGFR3 (Homo sapiens, UniProt P35916); experiment: HotSpot kinase assay; assay type: biochemical; settings: read-out: % Enzyme Activity (relative to DMSO controls)
# T3 construct: purchased Reaction Biology Corporation
# Aurora A = molecular target: T4, Aurora A (Homo sapiens, UniProt O14965); experiment: HotSpot kinase assay; assay type: biochemical; settings: read-out: % Enzyme Activity (relative to DMSO controls)
# T4 construct: purchased Reaction Biology Corporation
# PBK/TOPK = molecular target: T5, PBK/TOPK (Homo sapiens, UniProt Q96KB5); experiment: HotSpot kinase assay; assay type: biochemical; settings: read-out: % Enzyme Activity (relative to DMSO controls)
# T5 construct: purchased Reaction Biology Corporation
# MLK1/MAP3K9 = molecular target: T6, MLK1/MAP3K9 (Homo sapiens, UniProt P80192); experiment: HotSpot kinase assay; assay type: biochemical; settings: read-out: % Enzyme Activity (relative to DMSO controls)
# T6 construct: purchased Reaction Biology Corporation
# STK39/STLK3 = molecular target: T7, STK39/STLK3 (Homo sapiens, UniProt Q9UEW8); experiment: HotSpot kinase assay; assay type: biochemical; settings: read-out: % Enzyme Activity (relative to DMSO controls)
# T7 construct: purchased Reaction Biology Corporation
# ITK = molecular target: T8, ITK (Homo sapiens, UniProt Q08881); experiment: HotSpot kinase assay; assay type: biochemical; settings: read-out: % Enzyme Activity (relative to DMSO controls)
# T8 construct: purchased Reaction Biology Corporation
# DYRK1/DYRK1A = molecular target: T9, DYRK1/DYRK1A (Homo sapiens, UniProt Q13627); experiment: HotSpot kinase assay; assay type: biochemical; settings: read-out: % Enzyme Activity (relative to DMSO controls)
# T9 construct: purchased Reaction Biology Corporation
# ALK3/BMPR1A = molecular target: T10, ALK3/BMPR1A (Homo sapiens, UniProt P36894); experiment: HotSpot kinase assay; assay type: biochemical; settings: read-out: % Enzyme Activity (relative to DMSO controls)
# T10 construct: purchased Reaction Biology Corporation
# ERK7/MAPK15 = molecular target: T11, ERK7/MAPK15 (Homo sapiens, UniProt Q8TD08); experiment: HotSpot kinase assay; assay type: biochemical; settings: read-out: % Enzyme Activity (relative to DMSO controls)
# T11 construct: purchased Reaction Biology Corporation
# CAMK2a = molecular target: T12, CAMK2a (Homo sapiens, UniProt Q9UQM7); experiment: HotSpot kinase assay; assay type: biochemical; settings: read-out: % Enzyme Activity (relative to DMSO controls)
# T12 construct: purchased Reaction Biology Corporation
# ABL1 = molecular target: T13, ABL1 (Homo sapiens, UniProt P00519); experiment: biochemical
# T13 construct: purchased Reaction Biology Corporation
# Akt (pAkt T308) = assay type: cell-based, monkey; settings: 10µM
# LKB1 = molecular target: T14, LKB1 (Homo sapiens, UniProt Q15831); experiment: HotSpot kinase assay; assay type: biochemical; settings: read-out: % Enzyme Activity (relative to DMSO controls)
# T14 construct: purchased Reaction Biology Corporation
# TXK = molecular target: T15, TXK (Homo sapiens, UniProt P42681); experiment: HotSpot kinase assay; assay type: biochemical; settings: read-out: % Enzyme Activity (relative to DMSO controls)
# T15 construct: purchased Reaction Biology Corporation
# CDK2/cyclin O = molecular target: T16, CDK2/cyclin O (Homo sapiens, UniProt P24941); experiment: HotSpot kinase assay; assay type: biochemical; settings: read-out: % Enzyme Activity (relative to DMSO controls)
# T16 construct: purchased Reaction Biology Corporation
# MEK2 = molecular target: T17, MEK2 (Homo sapiens, UniProt P36507); experiment: HotSpot kinase assay; assay type: biochemical; settings: read-out: % Enzyme Activity (relative to DMSO controls)
# T17 construct: purchased Reaction Biology Corporation
# PKA = molecular target: T18, PKA (Homo sapiens, UniProt P17612); experiment: HotSpot kinase assay; assay type: biochemical
# T18 construct: purchased Reaction Biology Corporation
# ALK4/ACVR1B = molecular target: T19, ALK4/ACVR1B (Homo sapiens, UniProt P36896); experiment: HotSpot kinase assay; assay type: biochemical; settings: read-out: % Enzyme Activity (relative to DMSO controls)
# T19 construct: purchased Reaction Biology Corporation
# P38b/MAPK11 = molecular target: T20, P38b/MAPK11 (Homo sapiens, UniProt Q15759); experiment: HotSpot kinase assay; assay type: biochemical; settings: read-out: % Enzyme Activity (relative to DMSO controls)
# T20 construct: purchased Reaction Biology Corporation
# CHK2 = molecular target: T21, CHK2 (Homo sapiens, UniProt O96017); experiment: HotSpot kinase assay; assay type: biochemical; settings: read-out: % Enzyme Activity (relative to DMSO controls)
# T21 construct: purchased Reaction Biology Corporation
# TYK1/LTK = molecular target: T22, TYK1/LTK (Homo sapiens, UniProt P29376); experiment: HotSpot kinase assay; assay type: biochemical; settings: read-out: % Enzyme Activity (relative to DMSO controls)
# T22 construct: purchased Reaction Biology Corporation
# TAOK1 = molecular target: T23, TAOK1 (Homo sapiens, UniProt Q7L7X3); experiment: HotSpot kinase assay; assay type: biochemical; settings: read-out: % Enzyme Activity (relative to DMSO controls)
# T23 construct: purchased Reaction Biology Corporation
# GRK4 = molecular target: T24, GRK4 (Homo sapiens, UniProt P32298); experiment: HotSpot kinase assay; assay type: biochemical; settings: read-out: % Enzyme Activity (relative to DMSO controls)
# T24 construct: purchased Reaction Biology Corporation
# MEK1 = molecular target: T25, MEK1 (Homo sapiens, UniProt Q02750); experiment: HotSpot kinase assay; assay type: biochemical; settings: read-out: % Enzyme Activity (relative to DMSO controls)
# T25 construct: purchased Reaction Biology Corporation
# P38g = molecular target: T26, P38g (Homo sapiens, UniProt P53778); experiment: HotSpot kinase assay; assay type: biochemical; settings: read-out: % Enzyme Activity (relative to DMSO controls)
# T26 construct: purchased Reaction Biology Corporation
# CAMK1a = molecular target: T27, CAMK1a (Homo sapiens, UniProt Q14012); experiment: HotSpot kinase assay; assay type: biochemical; settings: read-out: % Enzyme Activity (relative to DMSO controls)
# T27 construct: purchased Reaction Biology Corporation
# FMS = molecular target: T28, FMS (Homo sapiens, UniProt P07333); experiment: HotSpot kinase assay; assay type: biochemical; settings: read-out: % Enzyme Activity (relative to DMSO controls)
# T28 construct: purchased Reaction Biology Corporation
# HIPK4 = molecular target: T29, HIPK4 (Homo sapiens, UniProt Q8NE63); experiment: HotSpot kinase assay; assay type: biochemical; settings: read-out: % Enzyme Activity (relative to DMSO controls)
# T29 construct: purchased Reaction Biology Corporation
# GRK1 = molecular target: T30, GRK1 (Homo sapiens, UniProt Q15835); experiment: HotSpot kinase assay; assay type: biochemical; settings: read-out: % Enzyme Activity (relative to DMSO controls)
# T30 construct: purchased Reaction Biology Corporation
# HSV-2(G) = experiment: synchronized infection (entry) assay, CaSki; assay type: cell-based
# Experimental: To quantify viral entry, cells were synchronously infected by allowing virus to bind to cells at 4°C for 4 h, washed, and then transferred to 37 °C. CIMSS or control DMSO was added at the time of temperature shift. At indicated times post-temperature shift, the cells were treated with a low pH buffer to inactivate virus that had not penetrated, washed, overlaid with medium containing methyl cellulose and viral plaques were counted at 48 h. Entry was also assessed by immunoblotting nuclear extracts for VP16. […] Nuclear extracts were prepared after 1 h and analyzed by western blot with antibodies targeting VP16, histone H1 and golgin-97[5]. The non-nuclear fraction was also probed for golgin-97 as a positive control. […] After 1 or 4 h of incubation, the cells were fixed. Plasma membranes were stained using Image -IT^TM LIVE Plasma Membrane kit and nuclei were stained with DAPI (Thermo Fisher Scientific, Cat 134406). The percentage of GFP + nuclei was determined by counting ~200 cells over 3–4 fields. Images were obtained with Leica SP8 microscope (objective 63 × 1.4); xz images were captured with optical slice 0.6 µm, 25–30 slices per image.
# PtdS and Akt = experiment: translocation of PtdS and Akt to the outer leaflet (microscopy), HSV-2 infected HaCat; assay type: cell-based, human; settings: 10µM
# CAMK4 = molecular target: T31, CAMK4 (Homo sapiens, UniProt Q16566); experiment: HotSpot kinase assay; assay type: biochemical; settings: read-out: % Enzyme Activity (relative to DMSO controls)
# T31 construct: purchased Reaction Biology Corporation
# MDCK-MDR1 cell = settings: 5 µM
# JAK2 = molecular target: T32, JAK2 (Homo sapiens, UniProt O60674); experiment: HotSpot kinase assay; assay type: biochemical; settings: read-out: % Enzyme Activity (relative to DMSO controls)
# T32 construct: purchased Reaction Biology Corporation
# [1] = Supplementary Table 1, read-out: IC50 (Molar concentration)
# [2] = read-out: % Enzyme Activity (relative to DMSO controls), 10µM
# T13 sequence (P00519 whole entry): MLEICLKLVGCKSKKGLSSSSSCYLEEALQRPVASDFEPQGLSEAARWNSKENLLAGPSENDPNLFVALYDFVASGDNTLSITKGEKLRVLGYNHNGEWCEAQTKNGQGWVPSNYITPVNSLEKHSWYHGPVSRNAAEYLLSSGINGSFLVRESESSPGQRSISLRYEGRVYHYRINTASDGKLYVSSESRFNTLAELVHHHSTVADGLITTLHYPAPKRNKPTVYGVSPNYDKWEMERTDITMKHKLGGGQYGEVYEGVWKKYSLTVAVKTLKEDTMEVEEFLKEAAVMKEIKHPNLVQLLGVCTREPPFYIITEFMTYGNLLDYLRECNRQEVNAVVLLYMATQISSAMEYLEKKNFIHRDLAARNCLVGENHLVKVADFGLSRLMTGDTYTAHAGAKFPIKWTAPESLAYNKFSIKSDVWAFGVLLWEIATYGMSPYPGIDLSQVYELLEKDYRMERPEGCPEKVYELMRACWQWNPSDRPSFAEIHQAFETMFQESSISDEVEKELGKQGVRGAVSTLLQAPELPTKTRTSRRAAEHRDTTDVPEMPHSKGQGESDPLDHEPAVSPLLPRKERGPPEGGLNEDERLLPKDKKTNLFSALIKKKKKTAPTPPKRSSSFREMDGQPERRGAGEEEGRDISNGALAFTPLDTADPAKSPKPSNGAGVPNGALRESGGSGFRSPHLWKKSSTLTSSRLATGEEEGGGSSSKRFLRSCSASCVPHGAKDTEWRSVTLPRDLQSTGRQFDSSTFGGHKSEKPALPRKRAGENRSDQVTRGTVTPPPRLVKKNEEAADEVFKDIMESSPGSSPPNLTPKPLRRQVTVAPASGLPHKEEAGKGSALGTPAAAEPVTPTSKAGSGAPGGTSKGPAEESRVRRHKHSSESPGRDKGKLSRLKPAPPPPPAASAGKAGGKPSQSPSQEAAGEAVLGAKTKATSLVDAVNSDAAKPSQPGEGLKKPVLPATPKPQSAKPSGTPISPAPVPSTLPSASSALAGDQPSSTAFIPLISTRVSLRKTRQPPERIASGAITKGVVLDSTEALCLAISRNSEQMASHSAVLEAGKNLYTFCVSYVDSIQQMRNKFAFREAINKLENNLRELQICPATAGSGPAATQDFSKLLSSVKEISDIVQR
# T23 sequence (Q7L7X3 whole entry): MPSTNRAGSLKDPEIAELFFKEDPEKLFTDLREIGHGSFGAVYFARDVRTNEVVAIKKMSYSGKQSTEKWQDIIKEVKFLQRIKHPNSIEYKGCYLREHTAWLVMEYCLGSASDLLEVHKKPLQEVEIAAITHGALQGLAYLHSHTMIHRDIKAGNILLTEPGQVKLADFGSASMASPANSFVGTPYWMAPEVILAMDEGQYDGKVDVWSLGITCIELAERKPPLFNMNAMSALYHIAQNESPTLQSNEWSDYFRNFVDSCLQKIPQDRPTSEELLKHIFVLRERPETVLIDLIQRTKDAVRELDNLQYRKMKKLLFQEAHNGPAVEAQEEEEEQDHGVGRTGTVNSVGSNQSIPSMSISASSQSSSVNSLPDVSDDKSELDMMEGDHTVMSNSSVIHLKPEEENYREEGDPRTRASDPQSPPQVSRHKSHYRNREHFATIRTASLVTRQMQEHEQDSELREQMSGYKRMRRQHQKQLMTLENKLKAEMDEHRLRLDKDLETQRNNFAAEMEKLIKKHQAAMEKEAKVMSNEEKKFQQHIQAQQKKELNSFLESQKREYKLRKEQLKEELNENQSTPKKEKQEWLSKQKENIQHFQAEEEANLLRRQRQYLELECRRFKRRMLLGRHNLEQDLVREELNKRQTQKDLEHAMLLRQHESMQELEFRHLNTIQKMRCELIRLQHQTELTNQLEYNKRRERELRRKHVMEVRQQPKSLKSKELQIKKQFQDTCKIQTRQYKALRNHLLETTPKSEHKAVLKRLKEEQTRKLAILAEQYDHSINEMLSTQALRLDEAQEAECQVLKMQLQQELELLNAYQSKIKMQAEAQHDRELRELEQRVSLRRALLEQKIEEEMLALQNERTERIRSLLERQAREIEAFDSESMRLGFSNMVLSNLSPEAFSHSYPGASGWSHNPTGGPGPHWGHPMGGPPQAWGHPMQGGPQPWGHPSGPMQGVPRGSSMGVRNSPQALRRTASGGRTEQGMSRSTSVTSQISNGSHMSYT
# T14 sequence (Q15831 whole entry): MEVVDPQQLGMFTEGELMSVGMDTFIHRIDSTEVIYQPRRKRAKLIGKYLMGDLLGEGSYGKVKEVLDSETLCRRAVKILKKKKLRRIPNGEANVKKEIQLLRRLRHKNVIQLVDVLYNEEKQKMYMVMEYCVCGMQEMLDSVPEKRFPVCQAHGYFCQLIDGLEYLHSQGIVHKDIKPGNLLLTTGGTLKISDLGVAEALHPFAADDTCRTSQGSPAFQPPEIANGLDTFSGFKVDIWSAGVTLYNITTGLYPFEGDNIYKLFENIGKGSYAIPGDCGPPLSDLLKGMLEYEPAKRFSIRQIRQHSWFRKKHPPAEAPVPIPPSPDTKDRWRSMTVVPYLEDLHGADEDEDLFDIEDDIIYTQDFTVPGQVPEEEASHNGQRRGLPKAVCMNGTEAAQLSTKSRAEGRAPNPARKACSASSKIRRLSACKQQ
# T14 sequence (Q7RTN6 whole entry partner): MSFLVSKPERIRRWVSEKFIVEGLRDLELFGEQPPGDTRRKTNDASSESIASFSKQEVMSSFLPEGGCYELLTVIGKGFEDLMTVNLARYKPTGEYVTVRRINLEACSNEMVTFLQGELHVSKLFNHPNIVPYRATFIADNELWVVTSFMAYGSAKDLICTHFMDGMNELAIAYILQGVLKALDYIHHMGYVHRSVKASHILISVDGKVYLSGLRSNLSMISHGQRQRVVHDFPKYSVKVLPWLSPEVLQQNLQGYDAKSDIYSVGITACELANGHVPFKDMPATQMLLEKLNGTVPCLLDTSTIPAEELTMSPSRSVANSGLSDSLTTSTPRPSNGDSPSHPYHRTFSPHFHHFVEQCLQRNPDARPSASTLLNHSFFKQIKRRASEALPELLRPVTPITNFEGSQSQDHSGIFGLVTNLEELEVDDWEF
# T14 sequence (Q9Y376 whole entry partner): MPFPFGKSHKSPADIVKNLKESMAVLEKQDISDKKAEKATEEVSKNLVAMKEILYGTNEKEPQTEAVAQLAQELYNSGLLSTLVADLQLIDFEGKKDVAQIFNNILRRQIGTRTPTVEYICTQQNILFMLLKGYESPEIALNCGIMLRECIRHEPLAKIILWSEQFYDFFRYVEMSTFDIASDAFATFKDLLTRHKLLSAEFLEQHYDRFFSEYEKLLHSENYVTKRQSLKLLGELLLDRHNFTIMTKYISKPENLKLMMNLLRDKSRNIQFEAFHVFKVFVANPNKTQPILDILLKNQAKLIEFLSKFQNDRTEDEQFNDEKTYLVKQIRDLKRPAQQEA
# T3 sequence (P35916 25-1363): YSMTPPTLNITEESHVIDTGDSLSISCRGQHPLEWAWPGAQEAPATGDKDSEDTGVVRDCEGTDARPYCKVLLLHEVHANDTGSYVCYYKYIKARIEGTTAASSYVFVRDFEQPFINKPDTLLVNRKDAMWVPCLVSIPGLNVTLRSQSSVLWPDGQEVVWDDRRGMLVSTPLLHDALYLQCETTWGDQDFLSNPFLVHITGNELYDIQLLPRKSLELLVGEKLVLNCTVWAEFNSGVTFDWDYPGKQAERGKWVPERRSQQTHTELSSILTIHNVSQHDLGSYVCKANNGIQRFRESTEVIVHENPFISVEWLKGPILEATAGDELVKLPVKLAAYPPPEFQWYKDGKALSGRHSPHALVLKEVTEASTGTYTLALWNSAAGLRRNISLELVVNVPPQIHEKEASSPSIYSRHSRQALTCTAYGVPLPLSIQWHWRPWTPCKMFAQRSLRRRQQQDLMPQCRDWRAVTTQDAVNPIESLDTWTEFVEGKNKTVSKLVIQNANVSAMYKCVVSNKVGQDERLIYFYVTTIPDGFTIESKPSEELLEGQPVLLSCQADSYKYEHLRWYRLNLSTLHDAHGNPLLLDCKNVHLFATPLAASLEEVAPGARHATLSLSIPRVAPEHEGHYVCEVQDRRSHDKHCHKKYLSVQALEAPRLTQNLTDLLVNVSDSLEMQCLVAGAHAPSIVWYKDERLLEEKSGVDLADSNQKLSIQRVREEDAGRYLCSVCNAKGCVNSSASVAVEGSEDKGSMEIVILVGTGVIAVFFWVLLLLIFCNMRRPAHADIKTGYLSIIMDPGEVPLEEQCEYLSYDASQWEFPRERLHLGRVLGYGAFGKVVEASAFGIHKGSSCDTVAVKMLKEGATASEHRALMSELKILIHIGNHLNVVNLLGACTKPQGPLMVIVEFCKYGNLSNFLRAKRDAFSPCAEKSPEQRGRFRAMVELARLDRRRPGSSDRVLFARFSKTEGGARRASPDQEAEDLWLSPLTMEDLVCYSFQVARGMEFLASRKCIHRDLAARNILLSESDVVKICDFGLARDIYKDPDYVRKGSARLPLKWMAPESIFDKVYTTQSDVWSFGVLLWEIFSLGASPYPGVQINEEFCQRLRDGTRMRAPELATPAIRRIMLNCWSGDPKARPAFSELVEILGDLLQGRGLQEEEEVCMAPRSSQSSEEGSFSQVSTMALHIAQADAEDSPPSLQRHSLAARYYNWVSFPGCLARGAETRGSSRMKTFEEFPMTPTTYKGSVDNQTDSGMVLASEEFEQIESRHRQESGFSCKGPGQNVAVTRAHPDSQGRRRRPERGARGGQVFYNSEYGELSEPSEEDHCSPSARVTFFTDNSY
# T26 sequence (P53778 whole entry): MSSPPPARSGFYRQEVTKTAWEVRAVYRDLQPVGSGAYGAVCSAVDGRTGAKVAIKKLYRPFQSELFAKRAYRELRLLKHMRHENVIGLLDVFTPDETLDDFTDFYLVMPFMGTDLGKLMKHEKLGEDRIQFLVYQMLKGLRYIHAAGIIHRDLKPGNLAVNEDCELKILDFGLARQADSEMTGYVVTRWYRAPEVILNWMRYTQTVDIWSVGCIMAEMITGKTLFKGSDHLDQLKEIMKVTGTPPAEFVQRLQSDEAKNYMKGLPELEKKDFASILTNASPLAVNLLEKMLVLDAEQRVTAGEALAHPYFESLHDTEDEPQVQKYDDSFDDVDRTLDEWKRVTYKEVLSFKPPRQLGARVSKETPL
compound,measurement,setting,value
CO[C@@H]1[C@H](N(C)C(=O)CCC(=O)NCc2cn(CCCS(=O)(=O)O)nn2)C[C@H]2O[C@]1(C)n1c3ccccc3c3c4c(c5c6ccccc6n2c5c31)C(=O)NC4 [CIMSS],remaining activity at 10 µM,FGFR1,6.31%
same,remaining activity at 10 µM,MARK2/PAR-1Ba,2.38%
same,remaining activity at 10 µM,FLT4/VEGFR3,1.97%
same,remaining activity at 10 µM,Aurora A,1.92%
same,remaining activity at 10 µM,PBK/TOPK,69.8%
same,remaining activity at 10 µM,MLK1/MAP3K9,4.06%
same,remaining activity at 10 µM,STK39/STLK3,19.6%
same,remaining activity at 10 µM,ITK,4.12%
same,remaining activity at 10 µM,DYRK1/DYRK1A,2.33%
same,remaining activity at 10 µM,ALK3/BMPR1A,79.5%
same,remaining activity at 10 µM,ERK7/MAPK15,27.9%
same,remaining activity at 10 µM,CAMK2a,1.36%
same,IC50,ABL1; [1],143 nM
same,remaining activity at 10 µM,ABL1; [2],5.18%
same,extracellular phosphorylation of Akt,Akt (pAkt T308),inhibited
same,remaining activity at 10 µM,LKB1,38%
same,remaining activity at 10 µM,TXK,3.64%
same,remaining activity at 10 µM,CDK2/cyclin O,4.97%
same,remaining activity at 10 µM,MEK2,68%
same,IC50,PKA; [1],42.3 nM
same,remaining activity at 10 µM,PKA; [2],6.32%
same,remaining activity at 10 µM,ALK4/ACVR1B,58.3%
same,remaining activity at 10 µM,P38b/MAPK11,84.5%
same,remaining activity at 10 µM,CHK2,25.4%
same,remaining activity at 10 µM,TYK1/LTK,7.18%
same,remaining activity at 10 µM,TAOK1,6.83%
same,remaining activity at 10 µM,GRK4,19.8%
same,remaining activity at 10 µM,MEK1,76.7%
same,remaining activity at 10 µM,P38g,30.3%
same,remaining activity at 10 µM,CAMK1a,28.7%
same,remaining activity at 10 µM,FMS,0.52%
same,remaining activity at 10 µM,HIPK4,10.7%
same,remaining activity at 10 µM,GRK1,4.7%
same,plaques counted at 48 h,HSV-2(G); 0.5 h post-temperature shift (Fig 3b source data),49 and 51
same,plaques counted at 48 h,HSV-2(G); 1 h,48 and 46
same,plaques counted at 48 h,HSV-2(G); 2 h,52 and 37
same,translocation of PtdS and Akt to the outer leaflet of the plasma membrane,PtdS and Akt,did not block
same,remaining activity at 10 µM,CAMK4,66.6%
same,Recover %,MDCK-MDR1 cell,96%
same,remaining activity at 10 µM,JAK2,1.13%
